Laboratory results taken from patent US11787837B2, “DCHBS-active esters of PEG compounds and their use” (Novo Nordisk A/S, priority 2016, dated 2023).

Assay: Hydrolytic stability of activated side chains (hydrolysis at pH ~10.3, UPLC/HPLC area comparison at 210 nm)
Format: physicochemical
Settings: for hydrolytic stability (in words): basic conditions, pH 10.3; for activated side chain still remaining: pH 10.3, hydrolysis times around 1100-1300 minutes
Experimental: 0.1 mmol of each activated side chain was dissolved in 1.0 mL NMP. To this solution was added 5 mL 1M NaHCO3 buffer solution adjusted to pH 10.0 with NaOH. Solution was stirred (pH ˜10.3) with aliquots being taken at different time intervals to determine to which extent the various activated side chains were hydrolysed.
The reaction mixtures were analysed by UPLC (Example no. 2 and E—UPLC_A_1) and HPLC (Example no. 1, B, C, and D—HPLC_A_1), and the percent of hydrolysis for the various side chains was estimated by area comparison in UV detection at 210 nm. In each example, the combined areas for released activation group (peak A) and non-activated side chain (peak B), was compared to area for activated side chain (peak C). The retention times (rt-A, rt-B, and rt-C for the various peaks (peak A, peak B, and peak C) for each side chain are summarised as follows; 1 (rt-A=1.94 min, rt-B=7.18-7.25 min, rt-C=7.48 min, HPLC_A_1), 2 (rt-A=0.48 min, rt-B=2.11 min, rt-C=2.29 min, UPLC_A_1), B (only rt-B detected at time point for analysis), C (rt-A=4.40 min, rt-B=7.25 min, HPLC_A_1), D (rt-A=4.01 min, rt-B=7.25 min, rt-C=10.16 min, HPLC_A_1), E (rt-A=2.08 min, rt-B=2.10 min, rt-C=2.10 min, UPLC_A_1).
The hydrolytic stability of the activated side chains of Examples 1 and 8B to 8D was tested. The hydrolysis protocol from Example 9 was used for the stability test.

[1] = Table 5, hydrolysis time 1380 min, method UPLC_A_4

Structure (SMILES): CN(C)S(=O)(=O)c1cc(Cl)cc(Cl)c1OC(=O)COCCOCCNC(=O)COCCOCCNC(=O)CC[C@H](NC(=O)CCCCCCCCCCCCCCCCC(=O)O)C(=O)O [Example 8C]
- Hydrolysis (%) at pH 10.3 [1]: 60%

Structure (SMILES): COCC(=O)Oc1c(Cl)cc(Cl)cc1S(=O)(=O)O [Example 8B, 3,5-dichloro-2-(2-methoxyacetyl)oxy-benzenesulfonic acid]
- Hydrolysis (%) at pH 10.3 [1]: 96%

Structure (SMILES): O=C(O)CCCCCCCCCCCCCCCCC(=O)N[C@@H](CCC(=O)NCCOCCOCC(=O)NCCOCCOCC(=O)Oc1c(Cl)cc(S(=O)(=O)O)cc1Cl)C(=O)O [Example E, 18-[[(1S)-1-carboxy-4-[2-[2-[2-[2-[2-[2-(2,6-dichloro-4-sulfo-phenoxy)-2-oxo-ethoxy]ethoxy]ethylamino]-2-oxo-ethoxy]ethoxy]ethylamino]-4-oxo-butyl]amino]-18-oxo-octadecanoic acid, reference compound]
- Hydrolysis (%) at pH 10.3 (hydrolysis time 2.5 min, NMP + 1M NaHCO3 buffer, pH ~10.3, UPLC_A_1): Quantitative (more than 99% of the side chain being hydrolysed)

Structure (SMILES): O=C(O)CCCCCCCCCCCCCCCCCCC(=O)NC[C@H]1CC[C@H](C(=O)N[C@@H](CCC(=O)NCCOCCOCC(=O)NCCOCCOCC(=O)ON2C(=O)CCC2=O)C(=O)O)CC1 [Example B, 20-[[4-[[(1S)-1-carboxy-4-[2-[2-[2-[2-[2-[2-(2,5-dioxopyrrolidin-1-yl)oxy-2-oxo-ethoxy]ethoxy]ethylamino]-2-oxo-ethoxy]ethoxy]ethylamino]-4-oxo-butyl]carbamoyl]cyclohexyl]methylamino]-20-oxo-icosanoic acid, reference compound]
- hydrolytic stability (in words): hydrolytically very unstable
- Hydrolysis (%) at pH 10.3 (hydrolysis time 0 min (within a minute), NMP + 1M NaHCO3 buffer, pH ~10.3, HPLC_A_1): Quantitative (more than 99% of the side chain being hydrolysed)

Structure (SMILES): O=C(O)CCCCCCCCCCCCCCCCCCC(=O)NC[C@H]1CC[C@H](C(=O)N[C@@H](CCC(=O)NCCOCCOCC(=O)NCCOCCOCC(=O)Oc2c(Cl)cccc2Cl)C(=O)O)CC1 [Example D, 20-[[4-[[(1S)-1-carboxy-4-[2-[2-[2-[2-[2-[2-(2,6-dichlorophenoxy)-2-oxo-ethoxy]ethoxy]ethylamino]-2-oxo-ethoxy]ethoxy]ethylamino]-4-oxo-butyl]carbamoyl]cyclohexyl]methylamino]-20-oxo-icosanoic acid, reference compound]
- hydrolytic stability (in words): hydrolyse very fast and almost quantitatively
- Hydrolysis (%) at pH 10.3 (hydrolysis time 2 min, NMP + 1M NaHCO3 buffer, pH ~10.3, HPLC_A_1): 93.4%

Structure (SMILES): O=C(O)CCCCCCCCCCCCCCCCCCC(=O)NC[C@H]1CC[C@H](C(=O)N[C@@H](CCC(=O)NCCOCCOCC(=O)NCCOCCOCC(=O)Oc2c(Cl)cc(Cl)cc2S(=O)(=O)O)C(=O)O)CC1 [Example 1, 20-[[4-[[(1S)-1-carboxy-4-[2-[2-[2-[2-[2-[2-(2,4-dichloro-6-sulfo-phenoxy)-2-oxo-ethoxy]ethoxy]ethylamino]-2-oxo-ethoxy]ethoxy]ethylamino]-4-oxo-butyl]carbamoyl]cyclohexyl]methylamino]-20-oxo-icosanoic acid]
- Hydrolysis (%) at pH 10.3 (Table 5, hydrolysis time 1269 min, method UPLC_A_1): 88.1%
- hydrolytic stability (in words): much more stable against hydrolysis
- Hydrolysis (%) at pH 10.3 (hydrolysis time 1269 min, NMP + 1M NaHCO3 buffer, pH ~10.3, HPLC_A_1): 88.1%
- activated side chain still remaining: approximately 12%

Structure (SMILES): O=C(O)CCCCCCCCCCCCCCCCC(=O)N[C@@H](CCC(=O)NCCOCCOCC(=O)NCCOCCOCC(=O)Oc1c(Cl)cc(Cl)cc1S(=O)(=O)O)C(=O)O [Example 2, 18-[[(1S)-1-carboxy-4-[2-[2-[2-[2-[2-[2-(2,4-dichloro-6-sulfo-phenoxy)-2-oxo-ethoxy]ethoxy]ethylamino]-2-oxo-ethoxy]ethoxy]ethylamino]-4-oxo-butyl]amino]-18-oxo-octadecanoic acid]
- hydrolytic stability (in words): much more stable against hydrolysis
- Hydrolysis (%) at pH 10.3 (hydrolysis time 1070 min, NMP + 1M NaHCO3 buffer, pH ~10.3, UPLC_A_1): 88.1%
- activated side chain still remaining: approximately 12%

Structure (SMILES): C#CCOCCOCCOCCOCCC(=O)Oc1c(Cl)cc(Cl)cc1S(=O)(=O)O [Example 8D, 3,5-dichloro-2-[3-[2-[2-(2-prop-2-ynoxyethoxy)ethoxy]ethoxy]propanoyloxy]benzenesulfonic acid]
- Hydrolysis (%) at pH 10.3 (Table 5, hydrolysis time 1440 min, method UPLC_A_5): 67%

Structure (SMILES): O=C(O)CCCCCCCCCCCCCCCCCCC(=O)NC[C@H]1CC[C@H](C(=O)N[C@@H](CCC(=O)NCCOCCOCC(=O)NCCOCCOCC(=O)Oc2ccc(Cl)cc2Cl)C(=O)O)CC1 [Example C, 20-[[4-[[(1S)-1-carboxy-4-[2-[2-[2-[2-[2-[2-(2,4-dichlorophenoxy)-2-oxo-ethoxy]ethoxy]ethylamino]-2-oxo-ethoxy]ethoxy]ethylamino]-4-oxo-butyl]carbamoyl]cyclohexyl]methylamino]-20-oxo-icosanoic acid, reference compound]
- hydrolytic stability (in words): hydrolyse very fast and almost quantitatively
- Hydrolysis (%) at pH 10.3 (hydrolysis time 0.16 min, NMP + 1M NaHCO3 buffer, pH ~10.3, HPLC_A_1): Quantitative (more than 99% of the side chain being hydrolysed)
